Laboratory results reported in ChEMBL document CHEMBL3593240, “Structure-based development of nitroxoline derivatives as potential multifunctional anti-Alzheimer agents” (Bioorg Med Chem, 2015).
pEC50, pIC50, pKd: −log10 of the molar value. Calls of active or inactive are those of the source. No cut-off for these calls is given here.

How the values were obtained:
[1] = target: T1, Acetylcholinesterase (Mus musculus) (UniProt P21836); test: Inhibition of […] iodide as substrate assessed as residual activity at 30 uM after 5 mins by Ellman's method relative to control
T1 sequence (whole entry): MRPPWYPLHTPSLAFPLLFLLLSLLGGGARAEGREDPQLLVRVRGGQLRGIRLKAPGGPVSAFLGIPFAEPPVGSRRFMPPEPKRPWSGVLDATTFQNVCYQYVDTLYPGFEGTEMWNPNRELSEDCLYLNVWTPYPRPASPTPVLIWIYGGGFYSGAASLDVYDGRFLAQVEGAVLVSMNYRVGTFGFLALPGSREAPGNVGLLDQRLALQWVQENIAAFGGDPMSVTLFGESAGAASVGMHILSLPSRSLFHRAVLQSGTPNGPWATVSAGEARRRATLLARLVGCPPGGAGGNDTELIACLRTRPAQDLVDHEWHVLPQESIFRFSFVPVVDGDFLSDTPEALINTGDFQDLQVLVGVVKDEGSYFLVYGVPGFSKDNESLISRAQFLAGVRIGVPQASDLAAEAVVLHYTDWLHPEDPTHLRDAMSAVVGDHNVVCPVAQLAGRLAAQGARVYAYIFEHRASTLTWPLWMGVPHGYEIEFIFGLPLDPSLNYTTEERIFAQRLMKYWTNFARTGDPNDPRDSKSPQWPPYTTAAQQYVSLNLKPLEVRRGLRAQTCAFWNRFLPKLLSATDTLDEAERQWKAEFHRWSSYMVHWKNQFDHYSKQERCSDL

[2] = Metal chelating activity of the compound assessed as Co2+ complex formation at 30 uM after 10 mins by UV-vis spectrometry; type: physicochemical
[3] = Metal chelating activity of the compound assessed as Zn2+ complex formation at 30 uM after 10 mins by UV-vis spectrometry; type: physicochemical
[4] = Solubility of the compound at 30 uM; type: physicochemical
[5] = Metal chelating activity of the compound assessed as Cu2+ complex formation at 30 uM after 10 mins by UV-vis spectrometry; type: physicochemical
[6] = Metal chelating activity of the compound assessed as Fe2+ complex formation at 30 uM after 10 mins by UV-vis spectrometry; type: physicochemical
Cholinesterase [7] = target: T2, Cholinesterase (Homo sapiens, UniProt P06276); test: Inhibition of human recombinant BChE using butyrylthiocholine iodide as substrate assessed as residual activity at 30 uM after 5 mins by Ellman's method relative to control
T2 sequence (P06276 whole entry): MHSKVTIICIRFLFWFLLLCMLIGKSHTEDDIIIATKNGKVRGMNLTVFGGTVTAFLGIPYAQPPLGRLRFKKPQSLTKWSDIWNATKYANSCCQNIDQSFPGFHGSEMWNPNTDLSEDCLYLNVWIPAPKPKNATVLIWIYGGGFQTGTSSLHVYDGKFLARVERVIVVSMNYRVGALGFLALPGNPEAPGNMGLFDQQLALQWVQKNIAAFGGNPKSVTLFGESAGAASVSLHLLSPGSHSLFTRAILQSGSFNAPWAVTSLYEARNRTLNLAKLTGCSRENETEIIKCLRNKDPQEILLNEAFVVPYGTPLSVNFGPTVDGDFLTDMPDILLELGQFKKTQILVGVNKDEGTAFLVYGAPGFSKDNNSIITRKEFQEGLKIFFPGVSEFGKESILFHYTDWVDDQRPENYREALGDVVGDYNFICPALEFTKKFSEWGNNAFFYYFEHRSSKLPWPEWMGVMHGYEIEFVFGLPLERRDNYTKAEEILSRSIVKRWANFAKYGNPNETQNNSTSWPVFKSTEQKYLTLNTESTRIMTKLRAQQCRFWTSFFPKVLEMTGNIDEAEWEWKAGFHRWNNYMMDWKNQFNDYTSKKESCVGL

[8] = target: Amyloid-beta precursor protein (Homo sapiens) (UniProt P05067); test: Inhibition of human recombinant amyloid beta (1 to 42) self aggregation at 10 uM after 12 hrs by dot-blot assay
Sequence of Amyloid-beta precursor protein (Homo sapiens) (P05067 whole entry): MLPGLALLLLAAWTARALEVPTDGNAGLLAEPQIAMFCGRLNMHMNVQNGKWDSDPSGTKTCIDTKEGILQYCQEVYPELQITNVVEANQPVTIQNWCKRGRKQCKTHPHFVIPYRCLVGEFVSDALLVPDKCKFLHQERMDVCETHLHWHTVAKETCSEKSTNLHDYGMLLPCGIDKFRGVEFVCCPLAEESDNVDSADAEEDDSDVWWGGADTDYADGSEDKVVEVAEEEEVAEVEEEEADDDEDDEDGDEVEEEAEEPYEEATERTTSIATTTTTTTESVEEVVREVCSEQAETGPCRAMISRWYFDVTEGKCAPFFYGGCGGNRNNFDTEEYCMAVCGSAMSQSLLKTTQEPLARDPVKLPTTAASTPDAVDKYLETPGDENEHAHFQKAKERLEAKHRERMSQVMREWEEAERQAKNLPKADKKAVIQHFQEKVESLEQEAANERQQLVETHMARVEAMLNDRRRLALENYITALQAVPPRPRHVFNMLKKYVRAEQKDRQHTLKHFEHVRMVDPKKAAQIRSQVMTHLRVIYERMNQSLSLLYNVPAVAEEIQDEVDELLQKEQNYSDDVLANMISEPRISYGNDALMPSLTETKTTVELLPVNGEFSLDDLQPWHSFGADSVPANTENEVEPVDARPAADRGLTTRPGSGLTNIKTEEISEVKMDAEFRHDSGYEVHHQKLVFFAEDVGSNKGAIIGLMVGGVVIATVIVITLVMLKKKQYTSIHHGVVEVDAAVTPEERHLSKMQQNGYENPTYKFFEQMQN

[9] = Antioxidant activity assessed as DPPH radical scavenging activity; type: physicochemical
[10] = Binding affinity to Cu2+ using CuCl2 at 30 uM by isothermal titration calorimetry analysis
[11] = Binding affinity to Cu2+ using CuCl2 at 30 uM after 45 mins
Cholinesterase [12] = target: T2, Cholinesterase
Description: Inhibition of human recombinant BChE using butyrylthiocholine iodide as substrate after 5 mins by Ellman's method

[13] = Metal chelating activity of the compound assessed as Mg2+ complex formation at 30 uM after 10 mins by UV-vis spectrometry; type: physicochemical
[14] = Metal chelating activity of the compound assessed as Ca2+ complex formation at 30 uM after 10 mins by UV-vis spectrometry; type: physicochemical

SMILES	inhibition [1]	Activity [2]	Activity [3]	solubility [4]	Activity [5]	Activity [6]	Ratio (Cholinesterase [7])	inhibition [8] [%]	pEC50 [9]	pKd [10]	Activity [11]	pIC50 (Cholinesterase [12])	Activity [13]	Activity [14]	inhibition (Cholinesterase [7])	Ratio [1]
COCCN(CC1CCCN(C2Cc3ccccc3C2)C1)C(=O)c1ccc2ccccc2c1 (stereo not drawn)	inactive	–	–	–	–	–	–	–	–	–	–	–	–	–	–	–
O=C(NCC1CCCN(Cc2nc3ccccc3s2)C1)c1cc([N+](=O)[O-])c2cccnc2c1O (stereo not drawn)	inactive	Active	Active	soluble	Active	Active	0.444	53.4	2.88	–	–	–	–	–	–	–
O=C(NCC1CCCN(c2nc3ccccc3o2)C1)c1cc([N+](=O)[O-])c2cccnc2c1O (stereo not drawn)	inactive	Active	Active	soluble	Active	Active	0.914	35.5	3.06	–	–	–	–	–	–	–
COCCN(CC1CCCN(C2Cc3ccccc3C2)C1)C(=O)c1cc([N+](=O)[O-])c2cccnc2c1O (stereo not drawn)	inactive	Active	Active	soluble	Active	Active	0.014	20.1	2.46	6.60	Active	6.67	Not Active	Not Active	–	–
O=c1c(O)c(-c2ccc(O)c(O)c2)oc2cc(O)cc(O)c12 [QUERCETIN]	–	–	–	–	–	–	–	–	4.96	–	–	–	–	–	–	–
O=C(NCC1CCCN(c2nc3ccccc3s2)C1)c1cc([N+](=O)[O-])c2cccnc2c1O (stereo not drawn)	inactive	Active	Active	soluble	Active	Active	–	33.3	2.42	–	–	–	–	–	inactive	–
COCCN(CC1CCN(Cc2nc3ccccc3s2)CC1)C(=O)c1cc([N+](=O)[O-])c2cccnc2c1O	inactive	Active	Active	soluble	Active	Active	0.129	44.2	2.38	–	–	5.67	–	–	–	–
COCCN(CC1CCN(Cc2nc3ccccc3o2)CC1)C(=O)c1cc([N+](=O)[O-])c2cccnc2c1O	inactive	Active	Active	soluble	Active	Active	0.805	34.9	3.11	–	–	–	Not Active	Not Active	–	–
O=C(NCC1CCCN(C2Cc3ccccc3C2)C1)c1cc([N+](=O)[O-])c2cccnc2c1O (stereo not drawn)	–	Active	Active	soluble	Active	Active	0.747	28.7	3.28	–	–	–	–	–	–	0.641
